Data as given in ChEMBL document CHEMBL1201862, “PubChem BioAssay data set” (2004).
The source made the active and inactive calls.

Key:
Fibrinogen beta chain [1] = target: T1, Fibrinogen beta chain (Homo sapiens, UniProt P02675); assay: Fluorescence polarization-based biochemical high throughput dose response assay to identify inhibitors that disrupt the binding of a cyclic peptide (Tn6) to the fibrin proteolytic product D-Dimer and fragment E complex [DD(E )].
T1 sequence (P02675 whole entry): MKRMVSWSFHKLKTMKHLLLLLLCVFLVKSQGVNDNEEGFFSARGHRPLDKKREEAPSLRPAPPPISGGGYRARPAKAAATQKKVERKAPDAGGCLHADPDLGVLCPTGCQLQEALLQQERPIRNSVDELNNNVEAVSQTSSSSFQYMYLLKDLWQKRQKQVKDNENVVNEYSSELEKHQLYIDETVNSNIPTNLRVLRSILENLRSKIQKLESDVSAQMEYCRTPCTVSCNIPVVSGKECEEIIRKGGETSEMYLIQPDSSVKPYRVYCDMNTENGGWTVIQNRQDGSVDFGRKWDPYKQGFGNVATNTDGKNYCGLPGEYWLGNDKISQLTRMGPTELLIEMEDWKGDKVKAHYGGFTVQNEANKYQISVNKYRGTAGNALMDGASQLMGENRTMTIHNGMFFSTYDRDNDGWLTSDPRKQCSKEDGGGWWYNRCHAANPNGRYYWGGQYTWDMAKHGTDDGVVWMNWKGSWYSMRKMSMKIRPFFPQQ

Protein skinhead-1 = target: T2, Protein skinhead-1 (Caenorhabditis elegans, UniProt P34707); assay type: functional
T2 sequence (P34707 whole entry): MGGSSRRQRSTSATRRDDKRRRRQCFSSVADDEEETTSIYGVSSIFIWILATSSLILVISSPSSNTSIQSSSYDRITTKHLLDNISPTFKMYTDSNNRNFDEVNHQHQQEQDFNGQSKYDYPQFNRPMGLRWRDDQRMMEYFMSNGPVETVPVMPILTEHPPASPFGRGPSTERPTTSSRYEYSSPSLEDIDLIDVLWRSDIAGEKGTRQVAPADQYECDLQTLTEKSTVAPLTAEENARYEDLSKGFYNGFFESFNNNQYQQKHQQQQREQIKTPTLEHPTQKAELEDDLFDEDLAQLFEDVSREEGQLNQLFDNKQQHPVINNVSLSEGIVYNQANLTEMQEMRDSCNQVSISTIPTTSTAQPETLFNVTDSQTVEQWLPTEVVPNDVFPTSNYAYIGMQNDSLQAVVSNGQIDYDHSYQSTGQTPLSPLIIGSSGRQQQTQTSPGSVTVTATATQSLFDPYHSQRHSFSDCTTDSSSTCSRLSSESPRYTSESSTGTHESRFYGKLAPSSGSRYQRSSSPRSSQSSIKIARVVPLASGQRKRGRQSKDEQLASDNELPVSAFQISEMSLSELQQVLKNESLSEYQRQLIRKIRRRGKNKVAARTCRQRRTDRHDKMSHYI

[2] = target: T3, Long-chain-fatty-acid--AMP ligase FadD28 (Mycobacterium tuberculosis, UniProt P9WQ59); assay: Fluorescence polarization aasay to screen for inhibitors that compete for the binding of FadD28 to a bisubstrate Measured in Biochemical System Using Plate Reader - 2147-01_Inhibitor_Dose_CherryPick_Activity.; assay type: functional, Mycobacterium tuberculosis H37Rv
T3 sequence (P9WQ59 whole entry): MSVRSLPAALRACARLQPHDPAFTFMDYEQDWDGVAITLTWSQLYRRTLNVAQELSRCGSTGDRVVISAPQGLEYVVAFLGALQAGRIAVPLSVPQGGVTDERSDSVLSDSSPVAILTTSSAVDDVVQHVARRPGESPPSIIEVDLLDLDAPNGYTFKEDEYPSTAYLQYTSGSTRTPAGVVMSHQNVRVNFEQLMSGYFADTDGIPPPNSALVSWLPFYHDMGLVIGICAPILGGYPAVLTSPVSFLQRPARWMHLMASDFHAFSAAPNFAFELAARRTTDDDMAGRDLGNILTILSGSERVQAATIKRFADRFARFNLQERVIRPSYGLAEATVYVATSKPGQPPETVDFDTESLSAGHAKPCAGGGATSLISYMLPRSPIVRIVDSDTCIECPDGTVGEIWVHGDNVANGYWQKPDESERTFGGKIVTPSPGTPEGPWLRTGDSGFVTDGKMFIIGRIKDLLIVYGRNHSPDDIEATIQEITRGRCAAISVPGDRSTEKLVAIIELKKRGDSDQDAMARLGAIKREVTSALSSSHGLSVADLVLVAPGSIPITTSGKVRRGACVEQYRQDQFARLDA

Fibrinogen beta chain [3] = target: T1, Fibrinogen beta chain; assay: Fluorescence polarization-based biochemical high throughput dose response assay to identify inhibitors that disrupt the binding of a cyclic peptide (Tn7) to the fibrin proteolytic product D-Dimer and fragment E complex [DD(E )].
[4] = inhibitors of intracellular T. cruzi replication, confirmation, NIH3T3 host cells, beta-gal luminescence (AID 2044); assay type: functional, cell-based;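 also: intracellular parasites grown in NIH/3T3 mouse fibroblasts as host cells; luminescent beta-galactosidase reporter signal from transgenic T. cruzi replicating inside host cells; inhibitors lower the luminescence signal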
[5] = cytotoxicity toward NIH3T3 fibroblasts, dose response, counter-screen, cell-based, ATP luminescence, mouse fibroblasts (AID 2010); assay type: functional;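 also: cells exposed to compound for about 90 hours before reading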
[6] = Vero E6 cell cytotoxicity, dose response, cytotoxicity control for non-replicating M. tuberculosis project, secondary assay (AID 492998); assay type: functional, VeroE6; details: Vero C1008
[7] = target: T4, Microphthalmia-associated transcription factor (Homo sapiens, UniProt O75030); assay: TRPM1 promoter luciferase signal decrease, dose response, MITF inhibitor project, cell-based, SK-MEL-5, cherry-picked, set 3 (AID 493073); assay type: functional
T4 sequence (O75030 whole entry): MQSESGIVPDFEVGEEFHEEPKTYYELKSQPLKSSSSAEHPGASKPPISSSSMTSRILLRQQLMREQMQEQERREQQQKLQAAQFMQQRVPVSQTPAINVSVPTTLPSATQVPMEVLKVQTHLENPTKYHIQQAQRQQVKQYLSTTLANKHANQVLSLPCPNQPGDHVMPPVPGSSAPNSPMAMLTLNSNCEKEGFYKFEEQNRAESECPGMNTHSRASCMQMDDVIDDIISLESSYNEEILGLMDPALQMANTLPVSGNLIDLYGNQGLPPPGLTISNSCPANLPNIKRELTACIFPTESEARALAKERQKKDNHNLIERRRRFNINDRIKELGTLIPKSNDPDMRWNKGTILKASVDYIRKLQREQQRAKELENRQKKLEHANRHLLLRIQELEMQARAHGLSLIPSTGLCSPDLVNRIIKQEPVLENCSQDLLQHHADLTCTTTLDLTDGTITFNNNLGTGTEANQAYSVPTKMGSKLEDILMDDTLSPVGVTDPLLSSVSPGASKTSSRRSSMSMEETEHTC

[8] = THP-1 cell cytotoxicity, dose response, cytotoxicity control for non-replicating M. tuberculosis project (AID 489025); assay type: functional
[9] = A375 melanoma cell viability loss, dose response, counter-screen for MITF inhibitor project, CellTiter-Glo luminescence, dry powder, set 4 (AID 624364); assay type: functional, cell-based; details: A-375;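 also: A375 melanoma cells are MITF independent so this is a counter screen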
[10] = A375 melanoma cell cytotoxicity, dose response, counter-screen for MITF inhibitor project, CellTiter-Glo luminescence, dry powder, set 2 (AID 624489); assay type: functional, cell-based; details: A-375;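 also: actives are compounds lowering A375 viability meaning general cytotoxicity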
[11] = THP-1 cell cytotoxicity, dose response, cytotoxicity control for Vif-APOBEC3G degradation inhibitor project, THP-1 cells (AID 1117359); assay type: functional; details: Human immunodeficiency virus 1, THP-1
[12] = inhibitors of Vif binding to APOBEC3G peptide, primary screen, biochemical, TR-FRET, GST-Vif 1-94, biotin-A3G peptide, dose response retest (AID 1117319); assay type: functional;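 also: TR-FRET signal of purified GST-Vif binding a biotinylated A3G peptide; inhibitors lower the FRET signal by blocking Vif and A3G binding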
[13] = target: Disintegrin and metalloproteinase domain-containing protein 17 (Homo sapiens, UniProt P78536); assay: ADAM17 protease inhibitors, dose response, counter-screen for ADAM10 exosite inhibitor project, biochemical, quenched FRET substrate (AID 743253)
[14] = ADAM10 inhibitors, peptide cleavage, dose response, biochemical, QFRET (AID 743254);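 also: ADAM10 enzyme with the DM2 quenched FRET peptide as substrate; EDANS fluorescence gain as the protease cuts the substrate; inhibitor potency against ADAM10 proteolytic activity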
[15] = A2780 ovarian cancer cell cytotoxicity, dose response, cytotoxicity control, plate reader, dry powder samples (AID 743046); assay type: functional, cell-based
Paired box protein Pax-8 = Paired box protein Pax-8 (Homo sapiens, UniProt Q06710); assay: inhibitors of PAX8-driven TPO luciferase reporter, dose response, RMG-I cells, cherry-pick (AID 687027); assay type: functional, cell-based;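 also: luciferase reporter driven by Pax8 target thyroperoxidase promoter measured by SteadyGlo luminescence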
[16] = non-specific cell cytotoxicity, dose response, cytotoxicity control for PAX8 inhibitor project, plate reader, dry powder samples (AID 743021); assay type: functional, cell-based
[17] = cytotoxicity in OVCAR8 ovarian cancer cells, dose response, PAX8 project, cell-based, plate reader, dry powder samples (AID 743197); assay type: functional; details: OVCAR-8
[18] = NIH:OVCAR-3 ovarian cancer cell cytotoxicity, dose response, PAX8 inhibitor project, plate reader, dry powder samples (AID 743044); assay type: functional, cell-based
[19] = growth suppression of beta-catenin-knockout colon cells, dose response, cell-based, HCT116, human colon tumor (AID 1045); assay type: functional;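 also: HCT116 colon tumor cells with beta catenin knocked out; cells exposed to compound for 60 hours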
[20] = growth suppression of PTEN-null colon cells, dose response, cell-based, HCT116 PTEN knockout (AID 1047); assay type: functional;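 also: HCT116 colon tumor cells with PTEN knocked out; cells exposed to compound for 60 hours before readout; potency for loss of cell viability measured by luminescence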
[21] = P. falciparum Dd2 growth inhibitors, dose response, SYBR Green, dry powder samples, set 9 (AID 1159568); assay type: functional, cell-based

Sequence of Disintegrin and metalloproteinase domain-containing protein 17 (P78536 whole entry, the tested form may be a part): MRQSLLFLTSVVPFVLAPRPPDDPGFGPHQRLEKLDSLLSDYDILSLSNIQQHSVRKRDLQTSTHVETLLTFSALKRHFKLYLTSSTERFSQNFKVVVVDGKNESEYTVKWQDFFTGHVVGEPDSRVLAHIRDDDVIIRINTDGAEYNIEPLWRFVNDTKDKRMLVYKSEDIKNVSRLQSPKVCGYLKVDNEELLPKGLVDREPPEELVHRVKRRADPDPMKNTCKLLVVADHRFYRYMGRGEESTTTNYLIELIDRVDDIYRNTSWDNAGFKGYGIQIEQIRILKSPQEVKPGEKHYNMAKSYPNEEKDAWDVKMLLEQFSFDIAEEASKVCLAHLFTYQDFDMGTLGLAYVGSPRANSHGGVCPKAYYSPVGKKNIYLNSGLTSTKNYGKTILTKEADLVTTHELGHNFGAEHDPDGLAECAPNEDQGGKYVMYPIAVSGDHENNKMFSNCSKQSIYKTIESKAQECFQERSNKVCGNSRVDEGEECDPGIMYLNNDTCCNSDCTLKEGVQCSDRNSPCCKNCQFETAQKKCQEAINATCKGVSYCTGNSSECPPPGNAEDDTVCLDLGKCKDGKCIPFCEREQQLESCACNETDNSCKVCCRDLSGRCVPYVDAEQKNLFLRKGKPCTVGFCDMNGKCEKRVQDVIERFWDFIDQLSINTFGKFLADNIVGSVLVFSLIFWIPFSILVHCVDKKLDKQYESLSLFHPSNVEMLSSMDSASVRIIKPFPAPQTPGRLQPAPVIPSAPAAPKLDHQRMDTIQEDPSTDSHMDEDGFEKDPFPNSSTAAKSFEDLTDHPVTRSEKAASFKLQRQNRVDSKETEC
Sequence of Paired box protein Pax-8 (Q06710 whole entry): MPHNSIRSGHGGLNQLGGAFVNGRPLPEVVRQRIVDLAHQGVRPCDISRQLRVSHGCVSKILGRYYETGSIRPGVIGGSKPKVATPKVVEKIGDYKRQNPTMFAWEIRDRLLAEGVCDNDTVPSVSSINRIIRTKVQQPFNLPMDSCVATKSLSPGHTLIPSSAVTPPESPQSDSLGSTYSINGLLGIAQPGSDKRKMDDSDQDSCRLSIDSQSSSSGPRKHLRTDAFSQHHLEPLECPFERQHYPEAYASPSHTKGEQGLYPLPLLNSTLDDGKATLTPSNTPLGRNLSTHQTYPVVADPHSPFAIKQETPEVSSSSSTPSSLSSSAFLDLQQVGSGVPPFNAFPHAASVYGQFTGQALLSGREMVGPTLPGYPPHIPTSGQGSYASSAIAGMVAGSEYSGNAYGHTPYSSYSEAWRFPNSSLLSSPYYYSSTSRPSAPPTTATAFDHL

SMILES: CCn1c(CSc2n[nH]c(N)n2)nc2cc(C(=O)O)ccc21
- IC50 (Fibrinogen beta chain [1]): 8.92 µM (active)
- IC50 (Protein skinhead-1): > 100 µM (inactive)
- AC50 [2]: 79 µM (active)
- IC50 (Fibrinogen beta chain [3]): > 83.3 µM (inactive)

SMILES: CN(c1ccccc1)S(=O)(=O)c1ccc(Cl)c(C(=O)Nc2ccc(-c3nc4ccccc4[nH]3)cc2)c1
- IC50 (Fibrinogen beta chain [1]): > 83.3 µM (inactive)
- EC50 [4]: 1.68 µM (active)
- IC50 (Fibrinogen beta chain [3]): > 83.3 µM (inactive)
- EC50 [5]: > 30 µM (not active)

SMILES: COc1ccc(S(=O)(=O)N(C(C)=O)c2ccc(OC(C)=O)c3ccccc23)cc1[N+](=O)[O-]
- CC50 [6]: > 20 µM (active)
- AC50 [7]: 11.6 µM (active)
- CC50 [8]: 10.7 µM (active)
- AC50 [9]: 55.5 µM (active)
- AC50 [10]: 29.1 µM (active)

SMILES: CC1C(=O)N2CCCc3cc(NC(=O)C(=O)NCc4cccnc4)cc1c32 (stereo unspecified)
- CC50 [11]: > 40 µM (active)

SMILES: CC(C)Cc1ccc(C(C)C(=N)N)cc1 (stereo unspecified)
- IC50 [12]: > 100 µM (active)
- CC50 [11]: > 40 µM (active)

SMILES: CC1(Cc2ccc(C(F)(F)F)o2)C(=O)Nc2cc(-c3ccc(F)cc3F)ccc21 (stereo unspecified)
- IC50 [13]: > 69.5 µM (inactive)
- IC50 [14]: 15.6 µM (inactive)

SMILES: C[C@H]1CCCCO[C@H](CN(C)S(=O)(=O)c2ccccc2)[C@@H](C)CN([C@@H](C)CO)C(=O)c2cc(NS(=O)(=O)c3ccc(Cl)cc3)ccc2O1
- AC50 [15]: 19.1 µM (active)
- AC50 (Paired box protein Pax-8): 7.4 µM (active)
- AC50 [16]: 43.2 µM (active)
- AC50 [17]: > 70 µM (inactive)
- AC50 [18]: 58.4 µM (active)

SMILES: CCN1CCN(C2=C(NS(=O)(=O)c3cccs3)C(=O)c3ccccc3C2=O)CC1
- AC50 [9]: > 70 µM (inactive)
- AC50 [10]: 56.1 µM (active)

SMILES: O=S(=O)(N/N=C/c1cn(Cc2ccccc2)c2ccccc12)c1ccccc1
- EC50 [19]: 35.6 µM (active)
- IC50 [13]: > 69.5 µM (inactive)
- EC50 [20]: 3.27 µM (active)
- IC50 [14]: 25.1 µM (inactive)

SMILES: CN(C)C(=O)c1ccc(-c2ccc([C@@H]3[C@H]4CN(C(=O)CC5CC5)CC(=O)N4[C@H]3CO)cc2)cc1
- AC50 [21]: 14.4 µM (active)

SMILES: Cc1ccccc1-c1ccc2c(c1)O[C@H](CN(C)C(=O)Nc1ccc(C(F)(F)F)cc1)[C@@H](C)CN([C@@H](C)CO)S2(=O)=O
- AC50 [21]: 5.32 µM (active)
